Among the data in patent US9339503B2, “Tetrahydro-quinazolinone derivatives as TANK and PARP inhibitors” (MERCK PATENT GMBH, priority 2012, dated 2016) are EC50 and IC50 values, retold here.

Where only a bound is given, the exact number is not on record here.

One assay relates to tankyrase 1/2. The experiment in a line: Measurement of cellular inhibition of tankyrase (Axin2 level, Luminex based assay, DLD1 cells). The note with it: 24 hours, increase of Axin2 level, read-out: EC50 tankyrase 1/2 (cell assay). As to the method:
Measurement of Cellular Inhibition of Tankyrase
Since Tankyrases have been described to modulate cellular level of Axin2 (Huang et al., 2009; Nature) the increase of Axin2 level is used as read-out for determination of cellular inhibition of Tankyrases in a Luminex based assay.
Cells of the colon carcinoma cell line DLD1 are plated in 96 well plates with 1.5×10^4 cells per well. Next day, cells are treated with a serial-dilution of test compound in seven steps as triplicates with a final DMSO concentration of 0.3%. After 24 hours, cells are lysed in lysis buffer (20 mM Tris/HCl pH 8.0, 150 mM NaCl, 1% NP40, 10% Glycerol) and lysates are cleared by centrifugation through a 96 well filter plate (0.65 μm). Axin2 protein is isolated from cell lysates by incubation with a monoclonal anti-Axin2 antibody (R&D Systems #MAB6078) that is bound to fluorescent carboxybeads. Then, bound Axin2 is specifically detected with a polyclonal anti-Axin2 antibody (Cell Signaling #2151) and an appropriate PE-fluorescent secondary antibody. The amount of isolated Axin2 protein is determined in a Luminex^200 machine (Luminex Corporation) according to the manufacturer's instruction by counting 100 events per well. […] For analysis, the obtained data were normalized against the untreated solvent control and fitted for determination of the EC50 values using the Assay Explorer software (Accelrys).

The target in assay [1] is T1, GST-tagged Tankyrase-1 (1023-1327 aa) (Homo sapiens, UniProt O95271).
T1 construct: GST-tagged Tankyrase-1 (1023-1327 aa)
The experiment in a line: Tankyrase 1 autoparsylation assay (HTRF enzyme assay). Type of assay: biochemical. As for the experimental part: (§1) The autoparsylation assay was run in two steps: the enzymatic reaction in which GST-tagged Tankyrase-1, resp Tankyrase-2 transferred biotinylated ADP-ribose to itself from biotinylated NAD as co-substrate and the detection reaction where a time resolved FRET between cryptate labelled anti-GST bound to the GST tag of the enzyme and Xlent® labelled-streptavidin bound the biotin-parsylation residue was analysed. The autoparsylation activity was detectable directly via the increase in HTRF signal.
(§2) The autoparsylation assay was performed as 384-well HTRF® (Cisbio, Codolet, France) assay format in Greiner low volume nb 384-well microtiter plates and was used for high throughput screen. 250 nM GST-tagged Tankyrase-1 (1023-1327 aa), respectively about 250 nM GST-tagged Tankyrase-2 (873-1166 aa) and 5 μM bio-NAD (Biolog, Life science Inst., Bremen, Germany) as co-substrate were incubated in a total volume of 5 μl (50 mM HEPES, 4 mM Mg-chloride, 0.05% Pluronic F-68, 1.4 mM DTT, 0.5% DMSO, pH 7.7) in the absence or presence of the test compound (10 dilution concentrations) for 90 min at 30° C. The reaction was stopped by the addition of 1 μl 50 mM EDTA solution. 2 μl of the detection solution (1.6 μM SA-Xlent® (Cisbio, Codolet, France), 7.4 nM Anti-GST-K® (Eu-labelled anti-GST, Cisbio, Codolet, France) in 50 mM HEPES, 800 mM KF, 0.1% BSA, 20 mM EDTA, 0.1% CHAPS, pH 7.0) were added. After 1 h incubation at room temperature the HTRF was measured with an Envision multimode reader (Perkin Elmer LAS Germany GmbH) at excitation wavelength 340 nm (laser mode) and emission wavelengths 615 nm and 665 nm. The ratio of the emission signals was determined. The full value used was the inhibitor-free reaction. The pharmacological zero value used was XAV-939 (Tocris) in a final concentration of 5 μM. The inhibitory values (IC50) were determined using either the program Symyx Assay Explorer® or Condosseo® from GeneData.
In general terms: In TR-FRET formats the signal depends on donor and acceptor labels being close together.

In assay [2] the target is T2, GST-tagged Tankyrase-2 (873-1166 aa) (Homo sapiens, UniProt Q9H2K2).
T2 construct: GST-tagged Tankyrase-2 (873-1166 aa)
The experiment in a line: Tankyrase 2 autoparsylation assay (HTRF enzyme assay). Type of assay: biochemical. As to the method: as §1, §2

Assay [3] concerns the target T3, GST-tagged Tnks-1 (1023-1327 aa) (Homo sapiens, UniProt O95271).
T3 construct: GST-tagged Tnks-1 (1023-1327 aa, prepared in-house); made in house
Nature of the assay: TNKS 1 activity ELISA (autoparsylation assay). The class given is biochemical. Particulars: read-out: IC50 tankyrase 1 (ELISA assay). As for the experimental part:
(§3) Biochemical Activity Testing of TNKS 1 and 2: Activity ELISA (Autoparsylation Assay)
(§4) For analysis of autoparsylation activity of TNKS 1 and 2 an activity ELISA was performed: In the first step GST tagged TNKS was captured on a Glutathione coated plate. Then the activity assay with biotinylated NAD was performed in the absence/presence of the compounds. During the enzymatic reaction GST tagged TNKS transferred biotinylated ADP-ribose to itself from biotinylated NAD as co-substrate. For the detection streptavidin-HRP conjugate was added that bound to the biotinylated TNKS and was thereby captured to the plates. The amount of biotinylated resp autoparsylated TNKS was detected with a luminescence substrate for HRP. The level of the luminescence signal correlated directly with the amount of autoparsylated TNKS and therefore with activity of TNKS.
(§5) The activity ELISA was performed in 384 well Glutathione coated microtiter plates (Express capture Glutathione coated plate, Biocat, Heidelberg, Germany). The plates were pre-equilibrated with PBS. Then the plates were incubated with 50 μl 20 ng/well GST-tagged Tnks-1 (1023-1327 aa, prepared in-house), respectively GST-tagged Tnks-2 (873-1166 aa, prepared in-house) in assay buffer (50 mM HEPES, 4 mM Mg-chloride, 0.05% Pluronic F-68, 2 mM DTT, pH 7.7) overnight at 4° C. The plates were washed 3 times with PBS-Tween-20. The wells were blocked by incubation at room temperature for 20 minutes with 50 μl blocking buffer (PBS, 0.05% Tween-20, 0.5% BSA). Afterwards the plates were washed 3 times with PBS-Tween-20. The enzymatic reaction was performed in 50 μl reaction solution (50 mM HEPES, 4 mM Mg-chloride, 0.05% Pluronic F-68, 1.4 mM DTT, 0.5% DMSO, pH 7.7) with 10 μM bio-NAD (Biolog, Life science Inst., Bremen, Germany) as co-substrate in the absence or presence of the test compound (10 dilution concentrations) for 1 hour at 30° C. The reaction was stopped by 3 times washing with PBS-Tween-20. For the detection 50 μl of 20 ng/μl Streptavidin, HRP conjugate (MoBiTec, Göttingen, Germany) in PBS/0.05% Tween-20/0.01% BSA were added and the plates were incubated for 30 minutes at room temperature. After three times washing with PBS-Tween-20 50 μl of SuperSignal ELISA Femto Maximum sensitivity substrate solution (ThermoFisherScientific (Pierce), Bonn, Germany) were added. Following a 1 minute incubation at room temperature luminescence signals were measured with an Envision multimode reader (Perkin Elmer LAS Germany GmbH) at 700 nm. The full value used was the inhibitor-free reaction. The pharmacological zero value used was XAV-939 (Tocris) in a final concentration of 5 μM. The inhibitory values (IC50) were determined using either the program Symyx Assay Explorer® or Condosseo® from GeneData.

The target in assay [4] is T4, GST-tagged Tnks-2 (873-1166 aa) (Homo sapiens, UniProt Q9H2K2).
T4 construct: GST-tagged Tnks-2 (873-1166 aa, prepared in-house); made in house
The experiment in a line: TNKS 2 activity ELISA (autoparsylation assay). Type of assay: biochemical. Particulars: read-out: IC50 tankyrase 2 (ELISA assay). As to the method: as §3, §4, §5
In general terms: ELISA stands for enzyme-linked immunosorbent assay.

T2 sequence (Q9H2K2 873-1166): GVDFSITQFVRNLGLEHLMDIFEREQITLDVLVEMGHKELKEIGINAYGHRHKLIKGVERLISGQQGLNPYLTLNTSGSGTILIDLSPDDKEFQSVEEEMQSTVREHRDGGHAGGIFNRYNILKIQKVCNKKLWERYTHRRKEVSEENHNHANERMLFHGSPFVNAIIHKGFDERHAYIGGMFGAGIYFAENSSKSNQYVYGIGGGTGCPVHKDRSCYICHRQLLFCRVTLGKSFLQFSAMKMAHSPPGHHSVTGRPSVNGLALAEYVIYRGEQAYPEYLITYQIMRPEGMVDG
T4 sequence (Q9H2K2 873-1166): as above
T3 sequence (O95271 1023-1327): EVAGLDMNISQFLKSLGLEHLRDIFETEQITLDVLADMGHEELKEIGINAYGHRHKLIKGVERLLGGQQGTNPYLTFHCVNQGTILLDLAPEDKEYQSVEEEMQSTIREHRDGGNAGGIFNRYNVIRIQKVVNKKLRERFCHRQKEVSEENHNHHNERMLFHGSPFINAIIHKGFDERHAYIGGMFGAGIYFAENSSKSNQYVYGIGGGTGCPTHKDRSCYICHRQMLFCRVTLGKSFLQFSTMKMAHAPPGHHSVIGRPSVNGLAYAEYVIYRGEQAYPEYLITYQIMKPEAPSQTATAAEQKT
T1 sequence (O95271 1023-1327): as above

As a reminder, the IC50 is the concentration that inhibits the measured activity by half. Take `O=c1[nH]c(N2CCC(C(F)(F)F)CC2)nc2c1CCCC2` [Compound A10, 2-(4-Trifluoromethylpiperidin-1-yl)-5,6,7,8-tetrahydro-3H-quinazolin-4-one]: in the assay on tankyrase 1/2, the EC50 fell in the range of 3000 to 50000 nM. In addition, the IC50 was 300 to 3000 nM in assay [1], 300 to 3000 nM in assay [2], less than 300 nM in assay [3] and less than 300 nM in assay [4].

Take `COc1ccc(N2CCN(c3nc4c(c(=O)[nH]3)CCCC4)CC2)cn1` [Compound A51, 2-[4-(6-methoxy-3-pyridyl)piperazin-1-yl]-5,6,7,8-tetrahydro-3H-quinazolin-4-one]: in the assay with tankyrase 1/2, the EC50 was 300 to 3000 nM. Further, the IC50 in assay [1], in assay [2], in assay [3] and in assay [4] was 300 to 3000 nM each time.

Regarding `O=c1[nH]c(N2CCN(c3cccc(F)c3)CC2)nc2c1CCCC2` [Compound A5, 2-[4-(3-Fluorophenyl)piperazin-1-yl]-5,6,7,8-tetrahydro-3H-quinazolin-4-one], the EC50 with tankyrase 1/2 was 3000 to 50000 nM. Further, the IC50 is 300 to 3000 nM in assay [1], 300 to 3000 nM in assay [2], less than 300 nM in assay [3] and less than 300 nM in assay [4].

Turning to `O=c1[nH]c(N2CCN(c3ccccc3C(F)(F)F)CC2)nc2c1CCCC2` [Compound A56, 2-[4-(2-trifluoromethyl-phenyl)-piperazin-1-yl]-5,6,7,8-tetrahydro-3H-quinazolin-4-one], the EC50 with tankyrase 1/2 was 300 to 3000 nM. Also, the IC50 in assay [1] is less than 300 nM; in assay [2] it was 300 to 3000 nM; in assay [3] it was less than 300 nM; in assay [4] it was less than 300 nM.

In the case of `O=c1[nH]c(N2CCN(c3ccc(Cl)cc3)CC2)nc2c1CCCC2` [Compound A8, 2-[4-(4-Chlorophenyl)piperazin-1-yl]-5,6,7,8-tetrahydro-3H-quinazolin-4-one], in the assay with tankyrase 1/2, the EC50 was 3000 to 50000 nM. Besides, the half-inhibitory concentration (IC50) in assay [1] is 300 to 3000 nM; in assay [2] it was 300 to 3000 nM; in assay [3], less than 300 nM; in assay [4], less than 300 nM.

With `O=c1[nH]c(N2CCN(c3ccc(F)cc3Cl)CC2)nc2c1CCCC2` [Compound A39, 2-[4-(2-chloro-4-fluoro-phenyl)piperazin-1-yl]-5,6,7,8-tetrahydro-3H-quinazolin-4-one], the EC50 with tankyrase 1/2 lay in the range of 300 to 3000 nM. Moreover, the IC50 in assay [1] was 300 to 3000 nM; in assay [2], 300 to 3000 nM; in assay [3], less than 300 nM; in assay [4], less than 300 nM.

Turning to `COc1ccccc1C1CCN(c2nc3c(c(=O)[nH]2)CCCC3)CC1` [Compound A54, 2-[4-(2-methoxy-phenyl)-piperidin-1-yl]-5,6,7,8-tetrahydro-3H-quinazolin-4-one], the EC50 in the assay with tankyrase 1/2 was 300 to 3000 nM. The IC50 in assay [1] is less than 300 nM; in assay [2], 300 to 3000 nM; in assay [3], less than 300 nM; in assay [4], less than 300 nM.

Consider `O=c1[nH]c(N2CCN(c3cccc(Cl)c3)CC2)nc2c1CCCC2` [Compound A11, 2-[4-(3-Chlorophenyl)piperazin-1-yl]-5,6,7,8-tetrahydro-3H-quinazolin-4-one], for which the EC50 with tankyrase 1/2 lay in the range of 300 to 3000 nM. For the same molecule, the half-inhibitory concentration (IC50) in assay [1] was 300 to 3000 nM; in assay [2], 300 to 3000 nM; in assay [3] it was less than 300 nM; in assay [4], less than 300 nM.

`COc1ccc(C2CCN(c3nc4c(c(=O)[nH]3)CCCC4)CC2)cc1` [Compound A55, 2-[4-(4-methoxy-phenyl)-piperidin-1-yl]-5,6,7,8-tetrahydro-3H-quinazolin-4-one]: in the assay on tankyrase 1/2, the EC50 was 3000 to 50000 nM. The IC50 in assay [1] is less than 300 nM; in assay [2], 300 to 3000 nM; in assay [3] it was less than 300 nM; in assay [4], less than 300 nM.

Consider `COc1ccc(N2CCN(c3nc4c(c(=O)[nH]3)CCCC4)CC2)c(OC)c1` [Compound A37, 2-[4-(2,4-dimethoxyphenyl)piperazin-1-yl]-5,6,7,8-tetrahydro-3H-quinazolin-4-one], for which the EC50 in the assay with tankyrase 1/2 lay in the range of 300 to 3000 nM. The IC50 in assay [1] was 300 to 3000 nM; in assay [2], 300 to 3000 nM; in assay [3] it was less than 300 nM; in assay [4], less than 300 nM.
